The text below walks through data of article PMC3756485 (The Biochemical journal, 2012).

Experiment [1] deals with T1, PvENT4 (Plasmodium vivax, UniProt A5K9X9). In kind it is cell-based. The note with it: 60 min; for Uptake of radiolabeled substrate relative to H2O-injected oocytes: 1.5 μM radiolabeled compound; for Saturability of concentration-dependent uptake (Michaelis-Menten): concentrations up to 10 mM.
The target of experiment [2] is T2, PfENT4 (Plasmodium falciparum, UniProt Q8I2A8). In words: cell-based.
Experiment [3] has as its target T1, PvENT4. In words: cell-based.
Experiment [4] concerns the target T2, PfENT4. In kind it is cell-based. Particulars: 60 min; for Uptake of radiolabeled substrate relative to H2O-injected oocytes: 1.5 μM radiolabeled compound; for Saturability of concentration-dependent uptake (Michaelis-Menten): concentrations up to 10 mM.
In experiment [5] the test system is PfENT1. The note with it: cited from earlier work.
Experiment [6] relates to P. falciparum phosphodiesterase-1. Particulars: cited from earlier work.
In experiment [7] the test system is P. falciparum parasites. Particulars: read-out: IC50, in vitro growth; P. falciparum FCR-3 strain parasites; cited from earlier work.
Where [8] appears, read: read-out: Inhibition of adenine uptake.

Molecules are shown by their SMILES.

The inhibition is how much of the control response was suppressed. Broadly, the Ki is a measure of affinity in units of concentration, obtained from inhibition or displacement. High values mean lower affinity, low ones higher affinity. By IC50 is commonly meant the concentration that inhibits the measured activity by half.

On to `O=c1cc[nH]c(=O)[nH]1` [uracil], for which the “Uptake of radiolabeled substrate relative to H2O-injected oocytes” value in experiment [1] is “less accumulation”.
As for `O=[N+]([O-])c1ccc(CSc2ncnc3c2ncn3[C@@H]2O[C@H](CO)[C@@H](O)[C@H]2O)cc1` [NBMPR, nitrobenzylmercaptopurineriboside], the “Inhibition of adenine uptake” value in experiment [2] (PfENT4 oocytes, 150 nM [3H]adenine, 60 min, compound 10 μM) is on record as “insensitive”; in experiment [3] (PvENT4 oocytes, 150 nM [3H]adenine, 60 min, compound 10 μM), “insensitive”.
Turning to `O=c1[nH]cnc2nc[nH]c12` [hypoxanthine], the “Inhibition of adenine uptake” value was “did not inhibit” in experiment [2] (PfENT4 oocytes, 150 nM [3H]adenine, 60 min, concentration shown only in Figure 9) and “did not inhibit” in experiment [3] (PvENT4 oocytes, 150 nM [3H]adenine, 60 min, concentration shown only in Figure 9). Further, the “Uptake of radiolabeled substrate relative to H2O-injected oocytes” value in experiment [4] and in experiment [1] was “no observed uptake” each time.
With `O=c1[nH]cnc2c([C@@H]3N[C@H](CO)[C@@H](O)[C@H]3O)c[nH]c12` [Immucillin-H], the “Inhibition of [3H]adenine uptake at 7 mM compared with 2 mM” value in experiment [2] (PfENT4 oocytes, 150 nM [3H]adenine, 60 min) is reported as “significantly greater inhibition”.
Consider `Nc1ncnc2c1ncn2[C@@H]1O[C@H](CO)[C@@H](O)[C@H]1O` [adenosine], for which the “Uptake of radiolabeled substrate relative to H2O-injected oocytes” value in experiment [4] and in experiment [1] was “greater uptake” throughout. The “Saturability of concentration-dependent uptake (Michaelis-Menten)” value in experiment [4] (PfENT4 oocytes) and in experiment [1] (PvENT4 oocytes) was “not saturable” in each case.
Turning to `Nc1nc2c(ncn2[C@H]2C[C@H](O)[C@@H](CO)O2)c(=O)[nH]1` [2′-deoxyguanosine], the “Uptake of radiolabeled substrate relative to H2O-injected oocytes” value in experiment [4] and in experiment [1] was “greater uptake” throughout.
`Cc1c[nH]c(=O)[nH]c1=O` [thymine]: the “Uptake of radiolabeled substrate relative to H2O-injected oocytes” value in experiment [1] was “less accumulation”.
With `Nc1ncnc2c1ncn2[C@@H]1O[C@H](COP(=O)(O)O)[C@@H](O)[C@H]1O` [AMP, adenosine monophosphate], the “Transport of radiolabeled substrate” value is “not observed” in experiment [4] (PfENT4 oocytes, 1.5 μM, in presence of 250 μM α,β-methyleneADP) and “not observed” in experiment [1] (PvENT4 oocytes, 1.5 μM, in presence of 250 μM α,β-methyleneADP). The “Substrate of PfENT1” value in experiment [5] is reported as “not substrates”.
For `OCCN(CCO)c1nc(N2CCCCC2)c2nc(N(CCO)CCO)nc(N3CCCCC3)c2n1` [dipyridamole], the inhibition at 10 µM in experiment [2] (setting [8]) and in experiment [3] (setting [8]) was around 80% in each case. In addition, in experiment [5], the “Sensitivity of PfENT1 to inhibitor” value is reported as “insensitive”. In addition, the “Inhibition of recombinant P. falciparum phosphodiesterase-1” value in experiment [6] is “inhibits”.
On to `Nc1ncnc2c1ncn2[C@H]1C[C@H](O)[C@@H](CO)O1` [2′-deoxyadenosine], for which the “Uptake of radiolabeled substrate relative to H2O-injected oocytes” value in experiment [4] and in experiment [1] was “greater uptake” throughout.
As to `Cc1cn([C@H]2C[C@H](O)[C@@H](CO)O2)c(=O)[nH]c1=O` [thymidine], the “Uptake of radiolabeled substrate relative to H2O-injected oocytes” value in experiment [4] and in experiment [1] was “displayed uptake” in each case.
Take `C/C(=C\CNc1ncnc2[nH]cnc12)CO` [trans-zeatin]: the inhibitory constant (Ki) in experiment [2] is 20 ± 3 µM; in experiment [3] it was 193 ± 21 µM.
Turning to `CC(C)=CCNc1ncnc2nc[nH]c12` [isopentenyl adenine], the IC50 in experiment [7] is 8.34 µM.
`Nc1ncnc2[nH]cnc12` [adenine]: the Ki came out at 7 ± 2 µM in experiment [2] and 6 ± 2 µM in experiment [3]. The “Uptake of radiolabeled substrate relative to H2O-injected oocytes” value in experiment [4] and in experiment [1] was “greater uptake” throughout. Further, the “Saturability of concentration-dependent uptake (Michaelis-Menten)” value in experiment [4] (PfENT4 oocytes) and in experiment [1] (PvENT4 oocytes) was “not saturable” throughout.
Regarding `O=c1[nH]c(=O)c2[nH]c(=O)[nH]c2[nH]1` [urate], the “Competition for adenine transport” value in experiment [2] (PfENT4 oocytes, 150 nM [3H]adenine, 60 min, compound 500 μM) is “did not compete”; in experiment [3] (PvENT4 oocytes, 150 nM [3H]adenine, 60 min, compound 500 μM) it was “did not compete”.
As to `O=c1[nH]cnc2c1ncn2[C@@H]1O[C@H](CO)[C@@H](O)[C@H]1O` [inosine], the “Uptake of radiolabeled substrate relative to H2O-injected oocytes” value in experiment [4] and in experiment [1] was “greater uptake” in each case.
